The values below come from US20230374038A1, “MODULATORS OF CYSTIC FIBROSIS TRANSMEMBRANE CONDUCTANCE REGULATOR” (VERTEX PHARMACEUTICALS INCORPORATED, priority 2020, published 2023).

This test concerns the target T1, CFTR (Homo sapiens, UniProt P13569, DEL508-508).
T1 construct: endogenous in cells; host or cells: primary human bronchial epithelial cells, F508del/MF genotype
The test is described as follows: HBE Assay: Ussing chamber assay of CFTR-mediated short-circuit currents in F508del/MF-HBE cells with 1 μM Ivacaftor. It is filed as cell-based. As to conditions: with 1 μM Ivacaftor, 20% human serum; for HBE Activity at 10 μM: single fixed concentration of 10 μM; for EC50 / HBE Max Activity: 18-24 hours. The method, then:
Ussing chamber experiments were performed using human bronchial epithelial (HBE) cells derived from CF subjects heterozygous for F508del and a minimal function CFTR mutation (F508del/MF-HBE) and cultured as previously described (Neuberger T, Burton B, Clark H, Van Goor F Methods Mol Biol 2011:741:39-54). After four days the apical media was removed, and the cells were grown at an air liquid interface for >14 days prior to use.
(§1) To isolate the CFTR-mediated short-circuit (ISC) current, F508del/MF-HBE grown on Costar® Snapwell™ cell culture inserts were mounted in an Ussing chamber and the transepithelial ISC was measured under voltage-clamp recording conditions (Vhold=0 mV) at 37° C. The basolateral solution contained (in mM) 145 NaCl, 0.83 K2HIPO4, 3.3 KH2PO4, 1.2 MgCl2, 1.2 CaCl2), 10 Glucose, 10 HEPES (pH adjusted to 7.4 with NaOH) and the apical solution contained (in mM) 145 NaGluconate, 1.2 MgCl2, 1.2 CaCl2), 10 glucose, 10 HEPES (pH adjusted to 7.4 with NaOH) and 30 μM amiloride to block the epithelial sodium channel. Forskolin (20 μM) was added to the apical surface to activate CFTR, followed by apical addition of a CFTR inhibitor cocktail consisting of BPO, GlyH-101, and CFTR inhibitor 172 (each at 20 μM final assay concentration) to specifically isolate CFTR currents. The CFTR-mediated ISC (μA/cm^2) for each condition was determined from the peak forskolin response to the steady-state current following inhibition.
The activity of the CFTR corrector compounds on the CFTR-mediated ISC was determined in Ussing chamber studies as described above. The F508del/MF-HBE cell cultures were either incubated with the corrector compounds at a range of concentrations in combination with 1 μM Ivacaftor or were incubated with the corrector compounds at a single fixed concentration of 10 μM in combination with 1 μM Ivacaftor for 18-24 hours at 37° C. and in the presence of 20% human serum. The concentration of corrector compounds with 1 μM Ivacaftor during the 18-24 hours incubations was kept constant throughout the Ussing chamber measurement of the CFTR-mediated ISC to ensure compounds were present throughout the entire experiment.
as §1, with “K2HPO4,” for “K2HIPO4,”

Usually EC50 stands for the midpoint of the concentration-response curve.

The structures appear in SMILES notation.

T1 sequence (P13569 with tags, fused parts or gaps DEL508-508): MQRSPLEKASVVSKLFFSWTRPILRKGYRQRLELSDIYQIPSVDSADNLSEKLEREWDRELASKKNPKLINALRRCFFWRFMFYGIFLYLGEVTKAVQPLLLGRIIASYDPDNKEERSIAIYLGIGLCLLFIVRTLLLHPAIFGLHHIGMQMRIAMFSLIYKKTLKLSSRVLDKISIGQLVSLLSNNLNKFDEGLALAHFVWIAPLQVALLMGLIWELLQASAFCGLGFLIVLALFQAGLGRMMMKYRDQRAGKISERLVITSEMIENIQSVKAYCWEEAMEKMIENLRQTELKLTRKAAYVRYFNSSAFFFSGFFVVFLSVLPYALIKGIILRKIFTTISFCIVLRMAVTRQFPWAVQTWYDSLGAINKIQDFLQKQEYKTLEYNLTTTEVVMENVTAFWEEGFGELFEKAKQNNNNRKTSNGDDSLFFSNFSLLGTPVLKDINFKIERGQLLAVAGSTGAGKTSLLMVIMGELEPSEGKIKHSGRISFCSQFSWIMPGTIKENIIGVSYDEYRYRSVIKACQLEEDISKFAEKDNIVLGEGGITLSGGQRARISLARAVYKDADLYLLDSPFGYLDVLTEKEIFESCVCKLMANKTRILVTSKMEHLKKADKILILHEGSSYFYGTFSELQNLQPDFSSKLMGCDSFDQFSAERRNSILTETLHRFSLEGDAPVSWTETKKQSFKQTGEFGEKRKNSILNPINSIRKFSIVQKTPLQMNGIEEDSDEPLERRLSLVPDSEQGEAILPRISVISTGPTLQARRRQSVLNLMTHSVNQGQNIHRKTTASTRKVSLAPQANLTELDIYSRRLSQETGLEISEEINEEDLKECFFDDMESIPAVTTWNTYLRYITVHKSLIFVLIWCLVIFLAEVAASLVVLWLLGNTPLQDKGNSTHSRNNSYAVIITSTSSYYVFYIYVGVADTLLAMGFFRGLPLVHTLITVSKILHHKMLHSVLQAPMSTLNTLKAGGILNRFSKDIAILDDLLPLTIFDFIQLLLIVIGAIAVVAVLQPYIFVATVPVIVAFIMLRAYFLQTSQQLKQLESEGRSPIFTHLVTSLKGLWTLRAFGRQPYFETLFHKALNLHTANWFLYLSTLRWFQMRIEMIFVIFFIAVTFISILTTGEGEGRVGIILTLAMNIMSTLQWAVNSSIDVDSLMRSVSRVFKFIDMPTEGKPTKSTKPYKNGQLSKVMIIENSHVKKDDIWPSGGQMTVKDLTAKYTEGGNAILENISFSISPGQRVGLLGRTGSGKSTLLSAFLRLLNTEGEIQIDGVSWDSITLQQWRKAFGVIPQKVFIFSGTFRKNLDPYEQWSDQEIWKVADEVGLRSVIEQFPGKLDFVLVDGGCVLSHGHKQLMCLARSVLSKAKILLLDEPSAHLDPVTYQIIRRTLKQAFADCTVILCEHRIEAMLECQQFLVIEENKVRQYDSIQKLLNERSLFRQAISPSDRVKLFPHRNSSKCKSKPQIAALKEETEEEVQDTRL

`Cc1cccc(CC2CCCC2)c1-c1nc2nc(c1C)OC[C@@H](CC(C)(C)C)NC(=O)c1cccc(c1)S(=O)(=O)N2` (atropisomer, axis not shown) [Compound 224]: the “HBE Activity at 10 μM” value is reported as “+++ (+++ is >600%)”.

As for `Cc1cccc(CC2CCCC2)c1-c1nc2nc(c1C)OC[C@@H](CC(C)(C)C)NC(=O)c1cccc(c1)S(=O)(=O)N2` (atropisomer, axis not shown) [Compound 225], the “HBE Activity at 10 μM” value is “+++ (+++ is >600%)”.

As for `Cc1cccc(CC(C)C)c1-c1nc2nc(c1C)OC[C@@H](CC(C)(C)C)NC(=O)c1cccc(c1)S(=O)(=O)N2` (atropisomer, axis not shown) [Compound 226], the “HBE Activity at 10 μM” value is given as “+++ (+++ is >600%)”.

On to `Cc1cccc(CC(C)C)c1-c1nc2nc(c1C)OC[C@@H](CC(C)(C)C)NC(=O)c1cccc(c1)S(=O)(=O)N2` (atropisomer, axis not shown) [Compound 227], for which the “HBE Activity at 10 μM” value is “+++ (+++ is >600%)”.

As to `Cc1cccc(C2CC2)c1-c1nc2nc(c1C)OC[C@@H](CC(C)(C)C)N(Cc1ccc(N3CCOCC3)cn1)C(=O)c1cccc(c1)S(=O)(=O)N2` (atropisomer, axis not shown) [Compound 228], the 50% effective concentration (EC50) is less than 1000 nM and the “HBE Max Activity” value is reported as “+++ (+++ is >600%)”.

Turning to `Cc1cccc(COC(C)C)c1-c1nc2nc(c1C)OC[C@@H](CC(C)(C)C)N(Cc1nccc(N(C)C(C)C)n1)C(=O)c1cccc(c1)S(=O)(=O)N2` (atropisomer, axis not shown) [Compound 229], the “HBE Activity at 10 μM” value is given as “+++ (+++ is >600%)”.

`Cc1cccc(COC(C)C)c1-c1nc2nc(c1C)OC[C@@H](CC(C)(C)C)N(Cc1nccc(N(C)C(C)C)n1)C(=O)c1cccc(c1)S(=O)(=O)N2` (atropisomer, axis not shown) [Compound 230]: the “HBE Activity at 10 μM” value is recorded as “+++ (+++ is >600%)”.

For the compound `Cc1cccc(CC(C)C)c1-c1nc2nc(c1C)OC[C@@H](CC(C)C)N(Cc1nccc(N(C)C(C)C)n1)C(=O)c1cccc(c1)S(=O)(=O)N2` (atropisomer, axis not shown) [Compound 231], the “HBE Activity at 10 μM” value was “+++ (+++ is >600%)”.

As for `Cc1cccc(CC(C)C)c1-c1nc2nc(c1C)OC[C@@H](C(C)C)N(Cc1nccc(N(C)C(C)C)n1)C(=O)c1cccc(c1)S(=O)(=O)N2` (atropisomer, axis not shown) [Compound 232], the “HBE Activity at 10 μM” value was “+++ (+++ is >600%)”.

In the case of `Cc1cccc(CC(C)C)c1-c1nc2nc(c1C)OC[C@@H](CC(C)(C)C)N(Cc1ncc(OC(C)C)cn1)C(=O)c1cccc(c1)S(=O)(=O)N2` (atropisomer, axis not shown) [Compound 233], the EC50 was less than 1000 nM and the “HBE Max Activity” value is “+++ (+++ is >600%)”.

As for `Cc1cccc(CC(C)C)c1-c1nc2nc(c1C)OC[C@@H](CC(C)(C)C)N(Cc1cccc(N(C)C(C)C)n1)C(=O)c1cccc(c1)S(=O)(=O)N2` (atropisomer, axis not shown) [Compound 235], the EC50 is less than 1000 nM and the “HBE Max Activity” value is reported as “+++ (+++ is >600%)”.

As to `Cc1cccc(CC(C)C)c1-c1nc2nc(c1C)OC[C@@H](CC(C)(C)C)N(Cc1ncc(N(C)C)cn1)C(=O)c1cccc(c1)S(=O)(=O)N2` (atropisomer, axis not shown) [Compound 236], the EC50 is less than 1000 nM and the “HBE Max Activity” value was “+++ (+++ is >600%)”.

Regarding `Cc1cccc(CC(C)C)c1-c1nc2nc(c1C)OC[C@@H](CC(C)C)N(Cc1cccc(N3CCC[C@H]3C)n1)C(=O)c1cccc(c1)S(=O)(=O)N2` (atropisomer, axis not shown) [Compound 237], the EC50 is less than 1000 nM and the “HBE Max Activity” value is given as “+++ (+++ is >600%)”.

For the compound `Cc1cccc(CC(C)C)c1-c1nc2nc(c1C)OC[C@@H](CC(C)(C)C)N(Cc1cncc(N(C)C(C)C)n1)C(=O)c1cccc(c1)S(=O)(=O)N2` (atropisomer, axis not shown) [Compound 238], the EC50 is less than 1000 nM and the “HBE Max Activity” value is “+++ (+++ is >600%)”.

As for `Cc1cccc(CC(C)C)c1-c1nc2nc(c1C)OC[C@@H](CC(C)C)N(Cc1ncc(N3CCC(C)(C)C3)cn1)C(=O)c1cccc(c1)S(=O)(=O)N2` (atropisomer, axis not shown) [Compound 241], the EC50 is less than 1000 nM and the “HBE Max Activity” value was “+++ (+++ is >600%)”.

As for `Cc1cccc(CC(C)C)c1-c1nc2nc(c1C)OC[C@@H](C)N(Cc1ncc(N3CCC(C)(C)C3)cn1)C(=O)c1cccc(c1)S(=O)(=O)N2` (atropisomer, axis not shown) [Compound 242], the EC50 is less than 1000 nM and the “HBE Max Activity” value was “+++ (+++ is >600%)”.

On to `Cc1cccc(CC(C)C)c1-c1nc2nc(c1C)OC[C@@H](CC(C)(C)C)N(Cc1ncc(N3CCC(C)(C)C3)cn1)C(=O)c1cccc(c1)S(=O)(=O)N2` (atropisomer, axis not shown) [Compound 243], for which the EC50 was in the range of 1000 to 3000 nM and the “HBE Max Activity” value is given as “+++ (+++ is >600%)”.

Turning to `Cc1cccc(CC2CCCCC2)c1-c1nc2nc(c1C(F)(F)F)OC[C@@H](CC(C)(C)C)N(Cc1ncc(N3CCOCC3)cn1)C(=O)c1cccc(c1)S(=O)(=O)N2` (atropisomer, axis not shown) [Compound 244], the EC50 is less than 1000 nM and the “HBE Max Activity” value was “+++ (+++ is >600%)”.

Take `Cc1cccc(CC2CCCCC2)c1-c1nc2nc(c1C(F)(F)F)OC[C@@H](CC(C)(C)C)N(Cc1ncc(N3CCOCC3)cn1)C(=O)c1cccc(c1)S(=O)(=O)N2` (atropisomer, axis not shown) [Compound 245]: the “HBE Activity at 10 μM” value was “++ (++ is 30-60%)”.

Consider `Cc1cccc(CC(C)C)c1-c1nc2nc(c1C(F)(F)F)OC[C@@H](CC(C)(C)C)N(Cc1ccc(N3CCOCC3)cn1)C(=O)c1cccc(c1)S(=O)(=O)N2` (atropisomer, axis not shown) [Compound 246], for which the EC50 is less than 1000 nM and the “HBE Max Activity” value is given as “+++ (+++ is >600%)”.

In the case of `Cc1cccc(CC(C)C)c1-c1nc2nc(c1C(F)(F)F)OC[C@@H](CC(C)(C)C)N(Cc1ccc(N3CCOCC3)cn1)C(=O)c1cccc(c1)S(=O)(=O)N2` (atropisomer, axis not shown) [Compound 247], the “HBE Activity at 10 μM” value was “++ (++ is 30-60%)”.

Consider `Cc1cccc(CC2CCCCC2)c1-c1nc2nc(c1C(F)(F)F)OC[C@@H](CC(C)(C)C)N(Cc1ccc(N3CCOCC3)cn1)C(=O)c1cccc(c1)S(=O)(=O)N2` (atropisomer, axis not shown) [Compound 248], for which the “HBE Activity at 10 μM” value is given as “+++ (+++ is >600%)”.

Take `Cc1cccc(CC2CCCCC2)c1-c1nc2nc(c1C(F)(F)F)OC[C@@H](CC(C)(C)C)N(Cc1ccc(N3CCOCC3)cn1)C(=O)c1cccc(c1)S(=O)(=O)N2` (atropisomer, axis not shown) [Compound 249]: the “HBE Activity at 10 μM” value was “++ (++ is 30-60%)”.

As for `Cc1cccc(CC2CCCCC2)c1-c1nc2nc(c1C)OC[C@@H](CC(C)(C)C)N(Cc1ncc(N3CC(C)(C)C3)cn1)C(=O)c1cccc(c1)S(=O)(=O)N2` (atropisomer, axis not shown) [Compound 253], the 50% effective concentration (EC50) is less than 1000 nM and the “HBE Max Activity” value is “+++ (+++ is >600%)”.

Consider `Cc1cccc(CC2CCCCC2)c1-c1nc2nc(c1C)OC[C@@H](CC(C)(C)C)N(Cc1ncc(N3CCC(C)(C)C3)cn1)C(=O)c1cccc(c1)S(=O)(=O)N2` (atropisomer, axis not shown) [Compound 254], for which the half-maximal effective concentration (EC50) lay within 1000 to 3000 nM and the “HBE Max Activity” value is “+++ (+++ is >600%)”.
